Laboratory results: the NIST ThermoML archive (doi:10.1016/j.jct.2017.10.004)

Legend:
[1] = 100 kPa, Liquid; for electrical conductivity: Alternating current cell with electrodes; for viscosity: Capillary tube (Ostwald / Ubbelohde) method; for mass density: Vibrating tube method
[2] = xn = mol fraction of the nth substance listed; details: 100 kPa, Liquid, x2 = 0; for viscosity: Capillary tube (Ostwald / Ubbelohde) method; for mass density: Vibrating tube method

Cn1cc[n+](C)c1.O=S(=O)([N-]S(=O)(=O)C(F)(F)F)C(F)(F)F [1,3-dimethylimidazolium bis((trifluoromethyl)sulfonyl)amide]
[1]
Details	electrical conductivity [S/m]	mass density [kg/m3]	viscosity [mPa·s]
298.15 K	0.774	1575.42	39.43
303.15 K	0.915	1570.25	32.51
308.15 K	1.06	1565.01	27.47
313.15 K	1.2	1559.73	23.43
318.15 K	1.35	1554.49	20.25
323.15 K	1.51	1549.34	17.72

O=C1CCCO1 [γ-butyrolactone] + Cn1cc[n+](C)c1.O=S(=O)([N-]S(=O)(=O)C(F)(F)F)C(F)(F)F
[2]
Details	mass density [kg/m3]	viscosity [mPa·s]
298.15 K	1124.59	1.71
303.15 K	1119.68	1.58
308.15 K	1114.78	1.47
313.15 K	1109.87	1.37
318.15 K	1104.96	1.28
323.15 K	1100.05	1.2
